# Source: US9718821B2, “Pyridopyrimidinone inhibitors of kinases” (AbbVie Inc., priority 2012, dated 2017)
# Biological target: T1, GST-tagged-Wee1 kinase (Homo sapiens, UniProt P30291)
# T1 construct: purchased Carnabio 05-177
# Experiment: Wee1 time-resolved fluorescence equilibrium binding assay (displacement of Oregon Green-labeled ATP-competitive kinase probe)
# Details: enzyme binding data; GST-tagged-Wee1 kinase 2 nM, fluorescent probe 300 nM, inhibitor 0.003 to 10 micromolar, 1 hour incubation; read-out: Wee-1 binding (Ki nM)
# Protocol: Wee1 kinase was assayed using a time-resolved fluorescence equilibrium binding assay monitoring displacement of a rapidly reversible Oregon Green-labeled ATP-competitive kinase probe (N-(2-(2-(2-(4-(4-(5-chloro-4-(2-(1-hydroxycyclobutyl)thiazol-5-yl)-1H-pyrrolo[2,3-b]pyridin-2-yl)phenyl)piperazin-1-yl)ethoxy)ethoxy)ethyl)-2′,7′-difluoro-3′,6′-dihydroxy-3-oxo-3H-spiro[isobenzofuran-1,9′-xanthene]-5-carboxamide) by competitive Wee1 inhibitors.
# Table 1 depicts enzyme binding data (Ki)for exemplary compounds.
# T1 sequence (P30291 whole entry): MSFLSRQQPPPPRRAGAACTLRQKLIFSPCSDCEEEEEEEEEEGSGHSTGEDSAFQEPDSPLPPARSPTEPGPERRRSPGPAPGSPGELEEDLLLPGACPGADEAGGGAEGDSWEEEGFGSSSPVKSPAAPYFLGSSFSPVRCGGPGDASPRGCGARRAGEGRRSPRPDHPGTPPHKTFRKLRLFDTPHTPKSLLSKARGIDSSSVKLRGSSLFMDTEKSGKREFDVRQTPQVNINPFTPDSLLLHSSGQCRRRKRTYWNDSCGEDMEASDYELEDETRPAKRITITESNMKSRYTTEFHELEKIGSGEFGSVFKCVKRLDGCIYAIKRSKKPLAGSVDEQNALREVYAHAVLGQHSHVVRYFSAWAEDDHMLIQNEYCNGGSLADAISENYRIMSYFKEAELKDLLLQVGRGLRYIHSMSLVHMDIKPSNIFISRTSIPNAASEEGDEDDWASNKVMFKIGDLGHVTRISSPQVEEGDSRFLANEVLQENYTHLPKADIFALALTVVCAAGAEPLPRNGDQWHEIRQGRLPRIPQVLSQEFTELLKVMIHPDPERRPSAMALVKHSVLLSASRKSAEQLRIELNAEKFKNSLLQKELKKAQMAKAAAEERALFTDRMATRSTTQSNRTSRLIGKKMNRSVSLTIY
row,Compound,Ki [nM]
1,"6-(2,6-dichlorophenyl)-8-methyl-2-(1,2,3,4-tetrahydroisoquinolin-6-ylamino)pyrido[4,3-d]pyrimidin-5(6H)-one [Example 76]",0.5
2,"C=Cc1cn(-c2c(Cl)cccc2Cl)c(=O)c2cnc(Nc3ccc4c(c3)CC(N(C)C)C4)nc12 (stereo not drawn) [Example 49, 6-(2,6-dichlorophenyl)-2-{[2-(dimethylamino)-2,3-dihydro-1H-inden-5-yl]amino}-8-ethenylpyrido[4,3-d]pyrimidin-5(6H)-one]",0.3
3,"C=Cc1cn(-c2c(Cl)cccc2Cl)c(=O)c2cnc(Nc3ccc(N4CCC(N(C)C)CC4)cc3)nc12 [Example 50, 6-(2,6-dichlorophenyl)-2-({4-[4-(dimethylamino)piperidin-1-yl]phenyl}amino)-8-ethenylpyrido[4,3-d]pyrimidin-5(6H)-one]",0.5
4,"C=Cc1cn(-c2c(Cl)cccc2Cl)c(=O)c2cnc(Nc3ccc4c(c3)CNCC43CC3)nc12 [Example 51, 6-(2,6-dichlorophenyl)-2-(2′,3′-dihydro-1′H-spiro[cyclopropane-1,4′-isoquinolin]-7′-ylamino)-8-ethenylpyrido[4,3-d]pyrimidin-5(6H)-one]",0.4
5,"C=Cc1cn(-c2c(Cl)cccc2Cl)c(=O)c2cnc(Nc3ccc(N4CC5CNCC5C4)cc3)nc12 (stereo not drawn) [Example 52, 6-(2,6-dichlorophenyl)-8-ethenyl-2-{[4-(hexahydropyrrolo[3,4-c]pyrrol-2(1H)-yl)phenyl]amino}pyrido[4,3-d]pyrimidin-5(6H)-one]",1.8
6,"CN1Cc2cc(Nc3ncc4c(=O)n(-c5c(Cl)cccc5Cl)cc(CO)c4n3)ccc2C2(CC2)C1 [Example 53, 6-(2,6-dichlorophenyl)-8-(hydroxymethyl)-2-[(2′-methyl-2′,3′-dihydro-1′H-spiro[cyclopropane-1,4′-isoquinolin]-7′-yl)amino]pyrido[4,3-d]pyrimidin-5(6H)-one]",0.3
7,"CN(C)C1Cc2ccc(Nc3ncc4c(=O)n(-c5c(Cl)cccc5Cl)cc(CO)c4n3)cc2C1 (stereo not drawn) [Example 54, 6-(2,6-dichlorophenyl)-2-{[2-(dimethylamino)-2,3-dihydro-1H-inden-5-yl]amino}-8-(hydroxymethyl)pyrido[4,3-d]pyrimidin-5(6H)-one]",0.4
8,"CN(C)C1CCN(c2ccc(Nc3ncc4c(=O)n(-c5c(Cl)cccc5Cl)cc(CO)c4n3)cc2)CC1 [Example 55, 6-(2,6-dichlorophenyl)-2-({4-[4-(dimethylamino)piperidin-1-yl]phenyl}amino)-8-(hydroxymethyl)pyrido[4,3-d]pyrimidin-5(6H)-one]",0.6
9,"C=Cc1cn(-c2c(Cl)cccc2Cl)c(=O)c2cnc(Nc3ccc4c(c3)CNCC4(C)C)nc12 [Example 56, 6-(2,6-dichlorophenyl)-2-[(4,4-dimethyl-1,2,3,4-tetrahydroisoquinolin-7-yl)amino]-8-ethenylpyrido[4,3-d]pyrimidin-5(6H)-one]",0.5
10,"O=c1c2cnc(Nc3ccc4c(c3)CNCC43CC3)nc2c(CO)cn1-c1c(Cl)cccc1Cl [Example 57, 6-(2,6-dichlorophenyl)-2-(2′,3′-dihydro-1′H-spiro[cyclopropane-1,4′-isoquinolin]-7′-ylamino)-8-(hydroxymethyl)pyrido[4,3-d]pyrimidin-5(6H)-one]",0.1
11,"CC1(C)CNCc2cc(Nc3ncc4c(=O)n(-c5c(Cl)cccc5Cl)cc(CO)c4n3)ccc21 [Example 58, 6-(2,6-dichlorophenyl)-2-[(4,4-dimethyl-1,2,3,4-tetrahydroisoquinolin-7-yl)amino]-8-(hydroxymethyl)pyrido[4,3-d]pyrimidin-5(6H)-one]",0.1
12,"C=Cc1cn(-c2c(Cl)cccc2Cl)c(=O)c2cnc(Nc3ccc4c(c3)CCNC4)nc12 [Example 59, 6-(2,6-dichlorophenyl)-8-ethenyl-2-(1,2,3,4-tetrahydroisoquinolin-6-ylamino)pyrido[4,3-d]pyrimidin-5(6H)-one]",0.1
13,"C=Cc1cn(-c2c(F)cccc2Cl)c(=O)c2cnc(Nc3ccc(N4CCC(N(C)C)CC4)cc3)nc12 [Example 60, 6-(2-chloro-6-fluorophenyl)-2-({4-[4-(dimethylamino)piperidin-1-yl]phenyl}amino)-8-ethenylpyrido[4,3-d]pyrimidin-5(6H)-one]",0.5
14,"C=Cc1cn(-c2c(F)cccc2Cl)c(=O)c2cnc(Nc3ccc(C4CCN(C)CC4)cc3)nc12 [Example 61, 6-(2-chloro-6-fluorophenyl)-8-ethenyl-2-{[4-(1-methylpiperidin-4-yl)phenyl]amino}pyrido[4,3-d]pyrimidin-5(6H)-one]",0.3
15,"C=Cc1cn(-c2c(F)cccc2Cl)c(=O)c2cnc(Nc3ccc(N4CCN(C)CC4)cc3)nc12 [Example 62, 6-(2-chloro-6-fluorophenyl)-8-ethenyl-2-{[4-(4-methylpiperazin-1-yl)phenyl]amino}pyrido[4,3-d]pyrimidin-5(6H)-one]",0.3
16,"C=Cc1cn(-c2c(F)cccc2Cl)c(=O)c2cnc(Nc3ccc4c(c3)CN(C)CC43CC3)nc12 [Example 63, 6-(2-chloro-6-fluorophenyl)-8-ethenyl-2-[(2′-methyl-2′,3′-dihydro-1′H-spiro[cyclopropane-1,4′-isoquinolin]-7′-yl)amino]pyrido[4,3-d]pyrimidin-5(6H)-one]",0.9
17,"C=Cc1cn(-c2c(F)cccc2Cl)c(=O)c2cnc(Nc3ccc4c(c3)CC(N(C)C)C4)nc12 (stereo not drawn) [Example 64, 6-(2-chloro-6-fluorophenyl)-2-{[2-(dimethylamino)-2,3-dihydro-1H-inden-5-yl]amino}-8-ethenylpyrido[4,3-d]pyrimidin-5(6H)-one]",0.5
18,"CNc1ncc2c(=O)n(-c3c(Cl)cccc3Cl)cc(C)c2n1 [Example 65, 6-(2,6-dichlorophenyl)-8-methyl-2-(methylamino)pyrido[4,3-d]pyrimidin-5(6H)-one]",127
19,"Cc1cn(-c2c(F)cccc2Cl)c(=O)c2cnc(Nc3ccc(N4CCN(C)CC4)cc3)nc12 [Example 66, 6-(2-chloro-6-fluorophenyl)-8-methyl-2-{[4-(4-methylpiperazin-1-yl)phenyl]amino}pyrido[4,3-d]pyrimidin-5(6H)-one]",0.9
20,"Cc1cn(-c2c(F)cccc2Cl)c(=O)c2cnc(Nc3ccc4c(c3)CN(C)CC43CC3)nc12 [Example 67, 6-(2-chloro-6-fluorophenyl)-8-methyl-2-[(2′-methyl-2′,3′-dihydro-1′H-spiro[cyclopropane-1,4′-isoquinolin]-7′-yl)amino]pyrido[4,3-d]pyrimidin-5(6H)-one]",0.8
21,"Cc1cn(-c2c(F)cccc2Cl)c(=O)c2cnc(Nc3ccc4c(c3)CC(N(C)C)C4)nc12 (stereo not drawn) [Example 68, 6-(2-chloro-6-fluorophenyl)-2-{[2-(dimethylamino)-2,3-dihydro-1H-inden-5-yl]amino}-8-methylpyrido[4,3-d]pyrimidin-5(6H)-one]",0.9
22,"Cc1cn(-c2c(F)cccc2Cl)c(=O)c2cnc(Nc3ccc(N4CCC(N(C)C)CC4)cc3)nc12 [Example 69, 6-(2-chloro-6-fluorophenyl)-2-({4-[4-(dimethylamino)piperidin-1-yl]phenyl}amino)-8-methylpyrido[4,3-d]pyrimidin-5(6H)-one]",2.4
23,"Cc1cn(-c2c(F)cccc2Cl)c(=O)c2cnc(Nc3ccc4c(c3)CN(C)CC4(C)C)nc12 [Example 70, 6-(2-chloro-6-fluorophenyl)-8-methyl-2-[(2,4,4-trimethyl-1,2,3,4-tetrahydroisoquinolin-7-yl)amino]pyrido[4,3-d]pyrimidin-5(6H)-one]",1.6
24,"Cc1cn(-c2c(F)cccc2Cl)c(=O)c2cnc(Nc3ccc(C4CCN(C)CC4)cc3)nc12 [Example 71, 6-(2-chloro-6-fluorophenyl)-8-methyl-2-{[4-(1-methylpiperidin-4-yl)phenyl]amino}pyrido[4,3-d]pyrimidin-5(6H)-one]",1.2
25,"Cc1cn(-c2c(F)cccc2Cl)c(=O)c2cnc(Nc3ccc4c(c3)CCNC4)nc12 [Example 72, 6-(2-chloro-6-fluorophenyl)-8-methyl-2-(1,2,3,4-tetrahydroisoquinolin-6-ylamino)pyrido[4,3-d]pyrimidin-5(6H)-one]",5.1
26,"Cc1cn(-c2c(F)cccc2Cl)c(=O)c2cnc(Nc3ccc4c(c3)CNCC4(C)C)nc12 [Example 73, 6-(2-chloro-6-fluorophenyl)-2-[(4,4-dimethyl-1,2,3,4-tetrahydroisoquinolin-7-yl)amino]-8-methylpyrido[4,3-d]pyrimidin-5(6H)-one]",1.5
27,"Cc1cn(-c2c(F)cccc2Cl)c(=O)c2cnc(Nc3ccc4c(c3)CNCC43CC3)nc12 [Example 74, 6-(2-chloro-6-fluorophenyl)-2-(2′,3′-dihydro-1′H-spiro[cyclopropane-1,4′-isoquinolin]-7′-ylamino)-8-methylpyrido[4,3-d]pyrimidin-5(6H)-one]",0.6
28,"Cc1cn(-c2c(F)cccc2Cl)c(=O)c2cnc(Nc3ccc4c(c3)CNCC4)nc12 [Example 75, 6-(2-chloro-6-fluorophenyl)-8-methyl-2-(1,2,3,4-tetrahydroisoquinolin-7-ylamino)pyrido[4,3-d]pyrimidin-5(6H)-one]",0.8
29,"Cc1cn(-c2c(Cl)cccc2Cl)c(=O)c2cnc(Nc3ccc4c(c3)CNCC4(C)C)nc12 [Example 77, 6-(2,6-dichlorophenyl)-2-[(4,4-dimethyl-1,2,3,4-tetrahydroisoquinolin-7-yl)amino]-8-methylpyrido[4,3-d]pyrimidin-5(6H)-one]",0.3
30,"Cc1cn(-c2c(Cl)cccc2Cl)c(=O)c2cnc(Nc3ccc(C4CCN(C)CC4)cc3)nc12 [Example 78, 6-(2,6-dichlorophenyl)-8-methyl-2-{[4-(1-methylpiperidin-4-yl)phenyl]amino}pyrido[4,3-d]pyrimidin-5(6H)-one]",0.2
